Laboratory results as given in patent publication US20220242905A1, “MODIFIED PEPTIDES AND THEIR USE” (UNIVERSITE DE MONTPELLIER, priority 2018, published 2022).
≈ marks a conversion by molar mass, not a printed value. Like-named read-outs stand apart in the source and are kept apart here.

How the values were obtained:
[1] = system: Bacillus subtilis ATCC6633; assay type: cell-based; details: for Minimal inhibitory concentration (MIC) B. subtilis ATCC6633: ATCC6633, 24 h
Experimental: (§1) Minimal inhibitory concentration (MIC) values and minimal bactericidal concentration (MBCs) values for ATC-peptides 1-9 were determined against both Gram-positive (Bacillus subtilis, Staphylococcus aureus, Enterococcus faecalis) and Gram negative (Escherichia coli, Pseudomonas aeruginosa) bacteria as well as a yeast (Candida albicans). Experiments were conducted in triplicate. For B. subtilis, compounds were tested against vegetative cells and spores, which are particularly resistant to the action of antimicrobial agents. MIC and MBCs values are shown Table 12. In addition, haemolytic properties of 1-9 were tested.
(§2) the antimicrobial performances of oligomers antimicrobial activity were determined on three Gram positive strains (Bacillus subtilis ATCC6633, Staphylococcus aureus ATCC6538 and Enterococcus faecalis ATCC29121), two Gram negative strains (Escherichia coli ATCC8739 and Pseudomonas aeruginosa ATCC9027) and one fungal strain (Candida albicans ATCC10231). Each bacterial strain was allowed to grow overnight on Trypto-Caseine-Soja agar (TSA, Difco) at 37° C., C. albicans was allowed to grow 48 h on a sabouraud medium (Difco) at 20-25° C. A fresh suspension at 10^8 CFU·mL^−1 was then prepared by inoculating the micro-organisms in a Tryptone-Sel solution. Concentration was monitored by measuring transmitted light at 620 nm or with the Mac Farland turbidity standard (Mac Farland=0.5≈10^8 CFU·mL^−1). Each suspension was then diluted in a doubly strong Mueller-Hinton (MH, Difco) broth to […]. Two-fold serial dilutions (100 μL) of oligomers in sterile water (pH adjusted between 7.4 and 7.7 with HCl and NaOH solutions) were mixed with microbial inoculum (100 μL) in NUNC sterile clear polystyrene flat-bottom 96-well plates. A 1/1 v/v oligomer solution/water mixture was used a negative control and a 1/1 vv water/microbial inoculum mixture was used a positive control. Plates were then incubated 24 h at 37° C. for bacteria and 48 h at 25° C. for C. albicans. Minimum Inhibitory Concentration (MIC) was determined as the lowest concentration inhibiting the growth of each micro-organism. […] Minimum Bactericidal Concentration (MBC) was determined as the lowest concentration that prevent the growth of more than one colony. Each assay was performed in a triple duplicate for each strain.

[2] = system: Pseudomonas aeruginosa ATCC9027; assay type: cell-based; details: for Minimal inhibitory concentration (MIC) P. aeruginosa ATCC9027: ATCC9027, 24 h
Experimental: as §1, §2

[3] = system: Candida albicans ATCC10231; assay type: cell-based; details: for Minimal inhibitory concentration (MIC) C. albicans ATCC10231: ATCC10231, 48 h
Experimental: as §1, §2

[4] = system: Staphylococcus aureus ATCC6538; assay type: cell-based; details: for Minimal inhibitory concentration (MIC) S. aureus ATCC6538: ATCC6538, 24 h
Experimental: as §1, §2

[5] = system: Enterococcus faecalis ATCC29121; assay type: cell-based; details: for Minimal inhibitory concentration (MIC) E. faecalis ATCC29121: ATCC29121, 24 h
Experimental: as §1, §2

[6] = system: Escherichia coli ATCC8739; assay type: cell-based; details: for Minimal inhibitory concentration (MIC) E. coli ATCC8739: ATCC8739, 24 h
Experimental: as §1, §2

[7] = system: Human red blood cells (hRBCs); assay: Hemolytic activity; assay type: cell-based; details: 1 h at 37° C., printed in the HD50 column
Experimental: (§3) Procedure for measurements of hemolytic activity: Human red blood cells (hRBCs) were washed multiple times with phosphate-buffered saline (PBS) until a clear supernatant was obtained. The hRBCs suspension was made in PBS with a Packed Cell Volume of 5%, Two-fold serial dilutions (50 μL) of oligomers in sterile water (pH adjusted between 7.4 and 7.7 with HCl and NaOH solutions) were mixed with hRBCs suspension (50 μL) in clear polystyrene optical-bottom 96-well plates which were filmed and incubated for 1 h at 37° C. A 1/1 vv hRBCs solution/PBS mixture was used a negative control and a 1/1 vv hRBCs solution/1% (TRIS 50 mM pH=8.0+1% SDS) mixture was used a positive control for 100% hemolysis. The mixture was then centrifuged at 1500 g for 10 min at 5° C. Next, 50 μL of the supernatant was transferred into a second plate, and the absorbance was read at 490 nm using a BioRad iMark plate reader. The hemolysis percentage was calculated by the formula % hemolysis=[Absorbance (sample)−Absorbance (negative control)]/[Absorbance (positive control)−Absorbance (negative control)]×100%. Each assay was performed in a double duplicate. Hemolytic activity was determined or estimated with the Hemolytic Concentration leading to 50% of lysis of hRBCs (HC50).

[8] = system: E. coli; assay: Surface electron microscopy (SEM) of bacterial morphology; assay type: cell-based, Escherichia coli; details: after 60 min incubation with 8×MIC; untreated about 2.0 μm
Experimental: FIG. 18 represents electronic microscopy photos. A/, B/ and C/ SEM micrographs untreated E. coli on glass platelets. In isotonic medium the cells are long, intact and evenly shaped.
FIG. 19 represents SEM micrographs untreated E. coli after 60 min incubation with 8×MIC of 9.
Surface electron microscopy (SEM) experiments: oligomer 9 was evaluated for its impact on E. coli morphology by surface electron microscopy (SEM). In order to define the best incubation period to observed antimicrobial effects, time-kill study was conducted over 2 h incubation at 37° C. […] Significant decrease of the growth rate was observed between 40 to 60 min at 4× and 8×MIC. […] experiments were performed after 60 min contact between bacteria cells and compound 9. […] In addition, whereas there were no fragments for control untreated bacteria, numerous spherical elements whose diameters were lower than 0.1 μm were observed around bacteria, the number of which increasing with the peptide concentration. Despite some dispersion in size, such fragments, probable microsomes, were classically reported with other AMPs associated with membrane permeation and/or depolarization. [M. Hartmann, M. Berditsch J. Hawecker, F. Ardakani, D. Gerthsen, A. S. Ulrich, Antimicrob. Agents Chemother. 2010, 54, 3132-3142 b/ E. Duval, C, Zatylny, M. Laurencin, M. Baudy-Floc'h, J. Henry, Peptides 2009, 30, 1608-1612.] […]

[9] = Hemolytic activity; assay type: cell-based, Human; details: human, human red blood cell suspension; hRBCs, 1 h at 37° C.; read-out: HD50, dose required to lyse 50% of the red blood cells
Experimental: as §3

[10] = system: E. coli; assay type: cell-based, Escherichia coli; details: 2 h
Experimental: FIG. 17 represents a graphic showing the results of a time-kill study of oligomer 9 on E. coli over 2 h incubation at 37° C.
Surface electron microscopy (SEM) experiments: oligomer 9 was evaluated for its impact on E. coli morphology by surface electron microscopy (SEM). In order to define the best incubation period to observed antimicrobial effects, time-kill study was conducted over 2 h incubation at 37° C. […] Significant decrease of the growth rate was observed between 40 to 60 min at 4× and 8×MIC. TEM experiments were performed after 60 min contact between bacteria cells and compound 9. […] In addition, whereas there were no fragments for control untreated bacteria, numerous spherical elements whose diameters were lower than 0.1 μm were observed around bacteria, the number of which increasing with the peptide concentration. Despite some dispersion in size, such fragments, probable microsomes, were classically reported with other AMPs associated with membrane permeation and/or depolarization. [M. Hartmann, M. Berditsch J. Hawecker, F. Ardakani, D. Gerthsen, A. S. Ulrich, Antimicrob. Agents Chemother. 2010, 54, 3132-3142 b/ E. Duval, C, Zatylny, M. Laurencin, M. Baudy-Floc'h, J. Henry, Peptides 2009, 30, 1608-1612.]

[11] = value in bracket, 24 h at 37° C.

SMILES | Minimal inhibitory concentration (MIC) B. subtilis ATCC6633 [1] | Minimal inhibitory concentration (MIC) P. aeruginosa ATCC9027 [2] | Minimal inhibitory concentration (MIC) C. albicans ATCC10231 [3] | Minimal inhibitory concentration (MIC) S. aureus ATCC6538 [4] | Minimal inhibitory concentration (MIC) E. faecalis ATCC29121 [5] | Minimal inhibitory concentration (MIC) E. coli ATCC8739 [6] | HD10 [7] | length of E. coli cells [8] | Minimal bactericidal concentration (MBC) B. subtilis ATCC6633 [1, 11] | Minimal bactericidal concentration (MBC) P. aeruginosa ATCC9027 [2, 11] | Minimal bactericidal concentration (MBC) C. albicans ATCC10231 ([3]; value in bracket, 48 h at 25° C.) | Minimal bactericidal concentration (MBC) S. aureus ATCC6538 [4, 11] | Minimal bactericidal concentration (MBC) E. faecalis ATCC29121 [5, 11] | Minimal bactericidal concentration (MBC) E. coli ATCC8739 [6, 11] | HC50 at 1 h [9] | average log reduction of the viable cell count [10] | average log reduction of the viable cell count [10]; 8
CC(=O)N[C@@H](CCCCN)c1nc(C)sc1C(=O)N[C@@H](C)c1nc(C)sc1C(=O)N[C@@H](C)c1nc(CCCCN)sc1C(=O)N[C@@H](C)c1nc(C)sc1C(=O)N[C@@H](C)c1nc(CCCCN)sc1C(=O)N[C@@H](CCCCN)c1nc(C)sc1C(=O)N[C@@H](C)c1nc(CCCCN)sc1C(=O)N[C@@H](CCCCN)c1nc(C)sc1C(=O)N[C@@H](C)c1nc(C)sc1C(=O)N[C@@H](C)c1nc(C)sc1C(=O)N[C@@H](C)c1nc(CCCCN)sc1C(=O)N[C@@H](CCCCN)c1nc(C)sc1C(N)=O [Oligomer 5] | 0.8 µM (≈ 2.03 µg/mL) | 100 µM (≈ 253 µg/mL) | 50 µM (≈ 127 µg/mL) | 100 µM (≈ 253 µg/mL) | >150 µM | 5.2 µM (≈ 13.2 µg/mL) | 62.5 µM | – | – | – | – | – | – | – | – | – | –
CC(=O)N[C@@H](CCCNC(=N)N)c1nc(C)sc1C(=O)N[C@@H](C)c1nc(CCCNC(=N)N)sc1C(=O)N[C@@H](C)c1nc(C)sc1C(=O)N[C@@H](CCCNC(=N)N)c1nc(C)sc1C(=O)N[C@@H](C)c1nc(CCCNC(=N)N)sc1C(=O)N[C@@H](C)c1nc(C)sc1C(=O)N[C@@H](CCCNC(=N)N)c1nc(C)sc1C(=O)N[C@@H](C)c1nc(CCCNC(=N)N)sc1C(=O)N[C@@H](C)c1nc(C)sc1C(=O)N[C@@H](CCCNC(=N)N)c1nc(C)sc1C(=O)N[C@@H](C)c1nc(CCCNC(=N)N)sc1C(=O)N[C@@H](C)c1nc(C)sc1C(N)=O [Oligomer 9] | 0.6 µM (≈ 1.66 µg/mL) | 4.2 µM (≈ 11.6 µg/mL) | 6.2 µM (≈ 17.1 µg/mL) | 3.1 µM (≈ 8.55 µg/mL) | 20.8 µM (≈ 57.4 µg/mL) | 1.8 µM (≈ 4.97 µg/mL) | – | ≥ 1.3 μm | (0.8) μM | (4.7) μM | (6.2) μM | (7.8) μM | (25) μM | (2.3) μM | > 100 µM | 0.95 log10 cfu/ml | 4.73 log10 cfu/ml
